Results on 4 molecules are retold here after article PMC10143848 (Viruses, 2023).

The subject of series [1] is IL-6, IL-4, IL-17A, IFN-γ. As to the kind of experiment: Pulmonary cytokines qRT-PCR in RSV-infected mice. It is filed as in vivo, Balb/C mice. The following applies: RSV-infected mice treated with A18, day 8 p.i. Background: Real-time PCR tracks product formation cycle by cycle.
Series [2] concerns SARS-CoV-2. As to the kind of experiment: Adsorption and penetration assay, SARS-CoV-2. It is filed as cell-based. The note with it: calu-3 cells.
The test system of series [3] is RSV A2. Briefly: Immunofluorescence, RSV gF expression in infected cells. Format: cell-based, Human RSV. The note with it: RSV A2 moi 1, 25 μg/mL of A18, 24 h p.i.
Another series relates to SARS-CoV-2 spike protein. Also noted: method as in ref 37 = [37]. The note with it: molecular docking and dynamics simulation; cited from earlier work.
The subject of series [4] is HSV-1 KOS. As to the kind of experiment: microbe, parasite or virus in culture. The note with it: Human alphaherpesvirus 1, HCLE, 24 h.
Another series is described as follows: in vitro. The note with it: human (HEp-2, A549, HCLE, Calu-3); cat (CRFK). It is filed as cell-based.
Series [5] deals with SARS-CoV-2.
Series [6] deals with HSV-1 Field. Briefly: microbe, parasite or virus in culture. The note with it: Human alphaherpesvirus 1, HCLE, 24 h.
The subject of series [7] is RSV A2. As to the kind of experiment: Virus yield inhibition assay, RSV A2. It is filed as cell-based. The following applies: human respiratory syncytial virus, moi 0.1, 24 h, virus yield by plaque assay.
Series [8] has as its system RSV A2. Briefly: RSV qRT-PCR assay (viral RNA synthesis). It is filed as cell-based, Human RSV. The note with it: A549 and Hep-2 cells, A18 25 mg/mL (so in the source), 6 h, 15 h and 24 h p.i.
The subject of another series is RSV line 19 and A2. As to the kind of experiment: Pulmonary RSV infection in mouse model. Format: in vivo, Balb/C mice.
In series [9] the test system is HSV-1 KOS.
Series [10] deals with Canine Coronavirus. As to the kind of experiment: microbe, parasite or virus in culture. The following applies: Alphacoronavirus 1, CRFK, 24 h.
The test system of series [11] is HSV-1 KOS. As to the kind of experiment: Adsorption and penetration assay, HSV-1 KOS. It is filed as cell-based. The following applies: HCLE cells.
A further series relates to NF-κB signaling pathway. As to the kind of experiment: NF-κB-LUC reporter gene assay in RSV A2-infected cells. It is filed as cell-based. The note with it: Hep-2, A549, J774A.1 cells infected with RSV A2 moi 1, 6 h; A18 25 μg/mL, BAY 11-7085 10 mg/mL (so in the source).
Series [12] deals with IL-6, IL-8, and TNF-α. Briefly: Cytokine determination by ELISA in TLR2/6 and TLR3 ligand-stimulated cells. The following applies: A549, Hep-2, J774A.1; TLR2/6 and TLR3 ligands for 6 h / 8 h (Fig. S3); A18 25, BAY 11-7085 10. It is filed as cell-based. On the technique in general: An ELISA detects its analyte on a solid surface through an enzyme-linked reagent.
The test system of series [13] is HSV-1 Field.
Series [14] has as its system HSV-1 B2006.
Series [15] relates to SARS-CoV-2. As to the kind of experiment: microbe, parasite or virus in culture. The note with it: Severe acute respiratory syndrome coronavirus 2, Calu-3, 24 h.
For series [16], the system named is RSV A2. Briefly: Adsorption and penetration assay, RSV A2. It is filed as cell-based, Human RSV. The note with it: A549 cells.
The test system of series [17] is HSV-1 B2006. As to the kind of experiment: microbe, parasite or virus in culture. The note with it: Human alphaherpesvirus 1, HCLE, 24 h.
Series [18] concerns SARS-CoV-2. It is filed as cell-based.
Series [19] has as its system IL-6, IL-8, and TNF-α. As to the kind of experiment: Cytokine determination by ELISA in RSV A2-infected cells. Format: cell-based. The following applies: RSV A2 moi 1, 24 h, A18 25 mg/mL, BAY 11-7085 10 mg/mL (so in the source); for IL-6 production vs RSV-infected control cells: Hep-2, A549, J774A.1 cells; for TNF-α production vs RSV-infected control cells: J774A.1 macrophages; for IL-8 production vs RSV-infected control cells: epithelial cells (Hep-2, A549).

For series [20], the system named is airway hyperreactivity (AHR). More on the design: method as in ref 14 = [14]. The following applies: i.p. (6 mg/kg/day) and i.n. (3 mg/kg/day), mouse models of steroid-resistant and severe asthma; cited from earlier work.
The subject of series [21] is Canine Coronavirus.
For the next series, the system named is RSV Line 19. Briefly: microbe, parasite or virus in culture. The note with it: human respiratory syncytial virus.
Series [22] concerns SARS-CoV-2 viral main protease. Also noted: method as in ref 36 = [36]. The following applies: in silico finding; compounds from E. purpurea; cited from earlier work.

SMILES strings stand for the structures.

For orientation: EC50 means the concentration giving half of the maximal effect. Read a low EC50 as a more potent agent. The CC50 is the concentration giving 50% cytotoxicity. Read a low CC50 as greater toxicity to the cells. Regarding `Oc1cc(O)c2cc(O)c(-c3ccc(O)c(O)c3)[o+]c2c1` [A18, Cyanidin chloride], in [1], the “pulmonary IFN-g levels, treated vs not treated” value is “did not observe statistical differences”. For the same molecule, the “pulmonary IL-4 gene expression vs untreated infected animals” value in series [1] is on record as “significantly lower levels”. For the same molecule, the “pulmonary IL-6 gene expression vs untreated infected animals” value in [1] is given as “significantly lower levels”. For the same molecule, the “pulmonary IL-17A gene expression vs untreated infected animals” value in series [1] is reported as “significantly lower levels”. For the same molecule, the “virus adsorption: virus yield after treatment during binding stage” value is “significant reduction of viral plaque formation” in the series on SARS-CoV-2 [2] (SARS-CoV-2 moi 1, 25 μg/mL of A18, 1 h at 4 °C); “significant reduction of viral plaque formation” in the series on HSV-1 KOS [11] (HSV-1 KOS moi 1, 25 μg/mL of A18, 1 h at 4 °C); “significant reduction of viral plaque formation” with RSV A2 [16] (RSV A2 moi 1, 25 μg/mL of A18, 1 h at 4 °C). Also, the “virus internalization: viral infectivity after treatment during internalization” value in the series on SARS-CoV-2 [2] (SARS-CoV-2 moi 1, 25 μg/mL of A18, 2 h at 37 °C) is “did not reduce viral infectivity”; in the series with HSV-1 KOS [11] (HSV-1 KOS moi 1, 25 μg/mL of A18, 2 h at 37 °C), “did not reduce viral infectivity”; with RSV A2 [16] (RSV A2 moi 1, 25 μg/mL of A18, 2 h at 37 °C), “did not reduce viral infectivity”. Moreover, the “infected and treated cells expressing gF” value with RSV A2 [3] (A549 cells, infected control 93%) is 23%; in the series on RSV A2 [3] (HEp-2 cells, infected control 96%) it was 10%. Further, in the series on SARS-CoV-2 spike protein, the “predicted interaction with SARS-CoV-2 spike protein” value was “interacts with spike protein”. Further, the EC50 in the series on HSV-1 KOS [4] is 5.5 ± 0.1 µg/mL; with HSV-1 Field [6], 7.6 ± 0.05 µg/mL; in the series with RSV A2 [7] (RSV A2 in A549 cells), 8.5 ± 0.1 µg/mL; in the series with RSV A2 [7] (RSV A2 in HEp-2 cells) it was 3 ± 0.06 µg/mL; in the series on Canine Coronavirus [10] it was 7.7 ± 0.1 µg/mL; with SARS-CoV-2 [15] it was 8.9 ± 0.09 µg/mL. Moreover, the EC50 with HSV-1 B2006 [17] turned out to be 4.6 ± 0.05 µg/mL; in the series on RSV Line 19 (A549, 24 h), 9.8 ± 0.08 µg/mL; in the series with RSV Line 19 (HEp-2, 24 h), 8 ± 0.1 µg/mL. This molecule also yielded a CC50 at 24 h in the series “in vitro” of more than 200 µg/mL. For the same molecule, the “SI (ratio CC50/EC50)” value in the series on SARS-CoV-2 [5] is reported as 23; with HSV-1 KOS [9] it was 46; with HSV-1 Field [13], 26; with HSV-1 B2006 [14] it was 43; in the series with Canine Coronavirus [21] it was 26. Besides, the “relative contents of viral RNA vs untreated infected cells” value with RSV A2 [8] was “significantly reduced”. In addition, the “weight loss vs untreated infected controls” value in the series on RSV line 19 and A2 (Balb/c mice, RSV A2 and line 19, A18 6 mg/kg i.p. or 3 mg/kg i.n. daily days 0-4, day 2 p.i. and entire course) was “significantly less weight loss”. In the series on RSV line 19 and A2 (Balb/c mice, RSV A2 and line 19, A18 6 mg/kg i.p. or 3 mg/kg i.n. daily, day 4 p.i.), the “RSV titers in the lung vs untreated animals” value is listed as “significantly lower”. Besides, in the series on RSV line 19 and A2 (RSV A2 and line 19 infected mice, H&E-stained lungs, day 8 p.i.), the “lung histology, semiquantitative histological scoring (Inflammation Index)” value is on record as “significantly reduced RSV-induced pathological damage”. For the same molecule, in the series on NF-κB signaling pathway, the “NF-κB activation (NF-κB-LUC luciferase activity)” value is recorded as “strongly inhibited”. In addition, the “IL-6 production in TLR ligand-stimulated cells” value with IL-6, IL-8, and TNF-α [12] is given as “significantly inhibited”. Also, the “IL-8 production in TLR ligand-stimulated cells” value in the series on IL-6, IL-8, and TNF-α [12] is “significantly inhibited”. Also, the “TNF-a production in TLR ligand-stimulated cells” value in the series with IL-6, IL-8, and TNF-α [12] is “significantly inhibited”. The “infected and treated cells expressing Spike protein” value with SARS-CoV-2 [18] was determined as 7%. Also, the “IL-6 production vs RSV-infected control cells” value in the series with IL-6, IL-8, and TNF-α [19] was “significantly reduced”. The “TNF-α production vs RSV-infected control cells” value in the series with IL-6, IL-8, and TNF-α [19] is “significantly reduced”. In the series on IL-6, IL-8, and TNF-α [19], the “IL-8 production vs RSV-infected control cells” value is “significantly reduced”. For the same molecule, the “airway hyperreactivity (AHR)” value in series [20] is listed as “alleviated airway hyperreactivity (AHR)”.

In the case of `CC(C)(C)c1ccc(S(=O)(=O)/C=C/C#N)cc1` [BAY 11-7085, reference compound], the “NF-κB activation (NF-κB-LUC luciferase activity)” value in the series on NF-κB signaling pathway is on record as “strongly inhibited”. Also, in the series with IL-6, IL-8, and TNF-α [12], the “IL-6 production in TLR ligand-stimulated cells” value is on record as “significantly inhibited”, the “IL-8 production in TLR ligand-stimulated cells” value is listed as “significantly inhibited” and the “TNF-a production in TLR ligand-stimulated cells” value is “significantly inhibited”. Moreover, in the series with IL-6, IL-8, and TNF-α [19], the “IL-6 production vs RSV-infected control cells” value was “significantly reduced”, the “TNF-α production vs RSV-infected control cells” value was “significantly reduced” and the “IL-8 production vs RSV-infected control cells” value is given as “significantly reduced”.

Consider `O=C(O)CC(=O)OC[C@H]1O[C@@H](Oc2cc3c(O)cc(O)cc3[o+]c2-c2ccc(O)c(O)c2)[C@H](O)[C@@H](O)[C@@H]1O` [Cyanidin 3-(6″-malonylglucoside)], for which the “inhibitory potential against SARS-CoV-2 via inhibition of viral main protease” value in series [22] was “good inhibitory potential”.

Take `OC[C@H]1O[C@@H](Oc2cc3c(O[C@@H]4O[C@H](CO)[C@@H](O)[C@H](O)[C@H]4O)cc(O)cc3[o+]c2-c2ccc(O)c(O)c2)[C@H](O)[C@@H](O)[C@@H]1O` [Cyanin]: the “inhibitory potential against SARS-CoV-2 via inhibition of viral main protease” value in [22] is on record as “good inhibitory potential”.
